These results are taken from patent US11304935B2 (UNIVERSITY OF SOUTH CHINA, priority 2018, dated 2022).

The subject of this assay is pentylenetetrazole-induced epilepsy. In words: Pentylenetetrazole-induced epilepsy model mice. The following applies: I-BRD9 10, 15, 20 mg/kg i.p. or s.c. 1 h before 45 mg/kg pentylenetetrazole i.p., compared with epilepsy model group. The class given is in vivo, C57BL/6 mice. The source says:
In the present disclosure, the animals are all 8-week-old healthy male C57BL/6 mice, weighing 22-24 grams, all purchased from Hunan SJD laboratory animal Co. LTD., license number: SCXK (Xiang) 2016-0002. C57BL/6 mice in different groups were all feed in an artificial day and night 12-hour circular lighting environment (7:00 AM-7:00 PM). The mice in the groups and were kept in cages, 4-6 mice per cage. In the cages, the mice had free access to food and water; and the daily food and water were changed regularly
Animals in each group were administered with corresponding dosage of drugs or vehicle by intraperitoneal or subcutaneous injection. 1 h later, 45 mg/kg of pentylenetetrazole was intraperitoneally injected. The behaviors and conditions of the animals were observed. Later, changes of mice behaviors were closely observed through video monitoring system for 1 h, and seizure level was evaluated by Racine grading standard. The incubation period (started after the completion the administration of pentylenetetrazole, and ended by the first time muscle spasm occurred), seizure level (subjected to the highest level) and duration period of the seizure were recorded.
Seizure level of mice were referred to a modified Racine scale:
I stage: rhythmical mouth, ears and facial twitch and spasm;
II stage: nodding and more serious facial twitch and spasm;
III stage: clonus of forelimb occurs, without up-right;
IV stage: rearing with forelimb clonus;
V stage: stiffness clonus occurs in the whole body, and falling.

On to `CCn1cc(-c2cccc(C(F)(F)F)c2)c2sc(C(=N)NC3CCS(=O)(=O)CC3)cc2c1=O` [I-BRD9], for which the “seizure level (modified Racine scale)” value (FIG. 1) is on record as “obviously reduced seizure level”. In addition, the epilepsy susceptibility result (FIG. 2) is reported as “reduced epilepsy susceptibility”. Moreover, the “incubation period (onset time of epilepsy)” value (FIG. 3) is given as “postpone the onset time of epilepsy”.
